Results taken from paper PMC10141580, “Cyclic Dichalcogenides Extend the Reach of Bioreductive Prodrugs to Harness Thiol/Disulfide Oxidoreductases: Applications to seco-Duocarmycins Targeting the Thioredoxin System” (ACS Central Science, 2023).
Where two headings read alike, the source gives them in different places.

What was measured:
[1] = tested on: mouse; assay: Tolerability for repeated dose administration in vivo (summary); conditions: for remarks: repeated dose administration; for well-tolerated dose: weekly or twice-weekly administration
[2] = tested on: A549 cells; assay: Resazurin cytotoxicity assay, A549, 72 h; conditions: read-out: IC50(nM): A549
Experimental: (§1) We used A549 lung cancer and HeLa cervical cancer cell lines for initial screening of the prodrugs.
Fi gure S9: Cell ular resazurin-based cytotoxi ci ty as s a y.
Dose -response curves were calculated from at least 27 incremental single concentrations over a range
of at least three log units. Individual experiments with annotated experiment numbers are shown for each prodrug

[3] = tested on: Balb/c mice; assay: Moderate repeated dosing tolerability study; type: in vivo
Experimental: Next, a moderate repeated dosing study in Balb/c mice (3 animals per group) tested the importance of solubilizing the prodrugs.
Methods for in vivo animal studies
All in vivo studies were conducted as contract research together with React ionBiology Eur ope G mbH (Freiburg,
Germany), EPO – Experimental Pharmacology & Oncology GmbH (Berlin, Germany); Bient a/ Enam ine Lt d. (Kyiv,
Ukraine) and Leit at – Managing Technologies (Barcelona, Spain), adhering to the respective animal welfare
Mice were kept in individually ventilated cages at constant temperature (22±2 °C, air-conditioned) and humidity (45
– 65%), under optimum hygienic conditions with 10 – 15 air changes per hour. A cycle of 12 h artificial fluorescent
light ning and 12 h darkness was applied , and animal behavior was monitored daily throughout the studies. The
animals received food and water ad libit um.
To evaluate toxicity of selected compounds, dose level selection studies within dose range from 0.1 mg/kg to
10 mg/kg were performed by intravenous administration into Balb /c mice. Each dose for each tested compound
was administered in one mouse.
changes and clinical signs of gross toxicity three tim es per week for 21 consecutive days of post-dosing period.
After the first week of observation without adverse events, two doses for each test compound were selected as
tolerated. These two doses were tested in two additional mice for confirmation of toler ability. Additional animals
consecutive days of post-dosing period. Toxicity of repeated administrations was tested wit h t hr ee repeat ed pr e-
selected doses at a dosing interval of 7 days. Mortality, body weight changes, and clinical signs of gross toxicity
were monitored after each drug administration and three times per week for 21 consecutive days after the first
compound administration. Bleed ing with subsequent hematological tests, clinical chemistry parameters analysis
(ALT, AST, ALP, LDH, creatine kinase, creatinine, urea, cholesterol, and triglycerides), and necropsy with
macroscopic inspection were performed on the terminal day of the repeated dosing-regime.
To test tolerability of selected compounds in vivo, female BALB/c mice were randomized by weight into seven
groups of t hree animals.

[4] = tested on: HeLa-HRE cells; assay: Resazurin cytotoxicity assay, HeLa-HRE, 48 h; conditions: for IC50(HeLa)/IC50(A549): ratio HeLa vs A549
Experimental: as §1
HeLa-HRE cells were treated with prodrugs of the
Dose -response curves were calculated from at least 27 incremental single concentrations over a
range of at least three log units.

[5] = tested on: NCI-60 standardized human tumor cell line panel; assay: cells; type: cell-based; conditions: read-out: GI50
[6] = read-out: IC50(nM): HeLa, HeLa, 48 h

## CN(C(=O)Oc1cc2c(c3ccccc13)[C@H](CCl)CN2C(=O)c1cc2cc(OCCCN3CCC3)ccc2[nH]1)[C@H]1CCS[Se]C1 [SeS60-CBI-AZI]
[1]
  remarks: adverse effects
[2]; Homo sapiens
  IC50: 60 nM
[3]; once weekly
  outcome of repeated dosing at 3 mg/kg: significant loss of body weight
[3]; treated twice a week
  outcome of repeated dosing at 1 mg/kg: still caused adverse effects
[4]; Homo sapiens, HeLa, 48 h, read-out: IC50(nM): HeLa
  IC50: 49 nM
[4]
  IC50(HeLa)/IC50(A549): 0.8

## COC(=O)Oc1cc2c(c3ccccc13)[C@H](CCl)CN2C(=O)c1cc2cc(OCCCN3CCC3)ccc2[nH]1 [MC-CBI-AZI]
[2]
  IC50: 1.6 nM
[4]
  IC50(HeLa)/IC50(A549): 0.5
[4]; [6]
  IC50: 0.8 nM

## CN1CCN(C(=O)CCN(C(=O)Oc2cc3c(c4ccccc24)[C@H](CCl)CN3C(=O)c2cc3cc(OCCCN4CCC4)ccc3[nH]2)[C@H]2CCSSC2)CC1 [P-SS60-CBI-AZI]
[1]
  remarks: well tolerated
  well-tolerated dose: 3 mg/kg
[5]; 786-0, AZI sheet
  GI50: 330 nM
[5]; A498, AZI sheet
  GI50: 200 nM
[5]; A549/ATCC, AZI sheet
  GI50: 110 nM
[5]; ACHN, AZI sheet
  GI50: 130 nM
[5]; BT-549, AZI sheet
  GI50: 1000 nM
[5]; CAKI-1, AZI sheet
  GI50: 150 nM
[5]; CCRF-CEM, AZI sheet
  GI50: 270 nM
[5]; COLO 205, AZI sheet
  GI50: 430 nM
[5]; DU-145, AZI sheet
  GI50: 170 nM
[5]; EKVX, AZI sheet
  GI50: 350 nM
[5]; HCC-2998, AZI sheet
  GI50: 150 nM
[5]; HCT-15, AZI sheet
  GI50: 210 nM
[5]; HCT-116, AZI sheet
  GI50: 230 nM
[5]; HL-60(TB), AZI sheet
  GI50: 390 nM
[5]; HOP-62, AZI sheet
  GI50: 150 nM
[5]; HOP-92, AZI sheet
  GI50: 1000 nM
[5]; HT29, AZI sheet
  GI50: 210 nM
[5]; IGROV1, AZI sheet
  GI50: 540 nM
[5]; K-562, AZI sheet
  GI50: 220 nM
[5]; KM12, AZI sheet
  GI50: 310 nM
[5]; LOX IMVI, AZI sheet
  GI50: 86 nM
[5]; M14, AZI sheet
  GI50: 200 nM
[5]; MALME-3M, AZI sheet
  GI50: 230 nM
[5]; MCF7, AZI sheet
  GI50: 49 nM
[5]; MDA-MB-231, AZI sheet
  GI50: 402 nM
[5]; MDA-MB-435, AZI sheet
  GI50: 290 nM
[5]; MDA-MB-468, AZI sheet
  GI50: 150 nM
[5]; MOLT-4, AZI sheet
  GI50: 230 nM
[5]; NCI-H23, AZI sheet
  GI50: 66 nM
[5]; NCI-H226, AZI sheet
  GI50: 150 nM
[5]; NCI-H460, AZI sheet
  GI50: 31 nM
[5]; NCI-H522, AZI sheet
  GI50: 250 nM
[5]; OVCAR-3, AZI sheet
  GI50: 430 nM
[5]; OVCAR-4, AZI sheet
  GI50: 1400 nM
[5]; OVCAR-5, AZI sheet
  GI50: 390 nM
[5]; OVCAR-8, AZI sheet
  GI50: 140 nM
[5]; PC-3, AZI sheet
  GI50: 378 nM
[5]; RPMI-8226, AZI sheet
  GI50: 570 nM
[5]; RXF 393, AZI sheet
  GI50: 190 nM
[5]; SF-268, AZI sheet
  GI50: 280 nM
[5]; SF-295, AZI sheet
  GI50: 110 nM
[5]; SF-539, AZI sheet
  GI50: 330 nM
[5]; SK-MEL-2, AZI sheet
  GI50: 340 nM
[5]; SK-MEL-5, AZI sheet
  GI50: 150 nM
[5]; SK-MEL-28, AZI sheet
  GI50: 210 nM
[5]; SK-OV-3, AZI sheet
  GI50: 310 nM
[5]; SN12C, AZI sheet
  GI50: 530 nM
[5]; SNB-19, AZI sheet
  GI50: 270 nM
[5]; SR, AZI sheet
  GI50: 66 nM
[5]; SW-620, AZI sheet
  GI50: 130 nM
[5]; T-47D, AZI sheet
  GI50: 570 nM
[5]; TK-10, AZI sheet
  GI50: 1600 nM
[5]; U251, AZI sheet
  GI50: 100 nM
[5]; UACC-62, AZI sheet
  GI50: 110 nM
[5]; UACC-257, AZI sheet
  GI50: 380 nM
[5]; UO-31, AZI sheet
  GI50: 190 nM
[2]
  IC50: 100 nM
[4]
  IC50(HeLa)/IC50(A549): 8.9
[4]; [6]
  IC50: 890 nM

## CN(CCSSCCN1CCOCC1)C(=O)Oc1cc2c(c3ccccc13)[C@H](CCl)CN2C(=O)c1cc2cc(OCCCN3CCC3)ccc2[nH]1 [SS00M-CBI-AZI]
[5]; 786-0, AZI sheet
  GI50: 32 nM
[5]; A498, AZI sheet
  GI50: 9.1 nM
[5]; A549/ATCC, AZI sheet
  GI50: 4.5 nM
[5]; ACHN, AZI sheet
  GI50: 28 nM
[5]; BT-549, AZI sheet
  GI50: 84 nM
[5]; CAKI-1, AZI sheet
  GI50: 37 nM
[5]; CCRF-CEM, AZI sheet
  GI50: 100 nM
[5]; COLO 205, AZI sheet
  GI50: 320 nM
[5]; DU-145, AZI sheet
  GI50: 12 nM
[5]; EKVX, AZI sheet
  GI50: 42 nM
[5]; HCC-2998, AZI sheet
  GI50: 27 nM
[5]; HCT-15, AZI sheet
  GI50: 57 nM
[5]; HCT-116, AZI sheet
  GI50: 45 nM
[5]; HL-60(TB), AZI sheet
  GI50: 130 nM
[5]; HOP-62, AZI sheet
  GI50: 2.5 nM
[5]; HOP-92, AZI sheet
  GI50: 380 nM
[5]; HT29, AZI sheet
  GI50: 70 nM
[5]; IGROV1, AZI sheet
  GI50: 45 nM
[5]; K-562, AZI sheet
  GI50: 75 nM
[5]; KM12, AZI sheet
  GI50: 31 nM
[5]; LOX IMVI, AZI sheet
  GI50: 8.7 nM
[5]; M14, AZI sheet
  GI50: 10 nM
[5]; MALME-3M, AZI sheet
  GI50: 48 nM
[5]; MCF7, AZI sheet
  GI50: 7.5 nM
[5]; MDA-MB-231, AZI sheet
  GI50: 71.1 nM
[5]; MDA-MB-435, AZI sheet
  GI50: 37 nM
[5]; MDA-MB-468, AZI sheet
  GI50: 40 nM
[5]; MOLT-4, AZI sheet
  GI50: 50 nM
[5]; NCI-H23, AZI sheet
  GI50: 10 nM
[5]; NCI-H226, AZI sheet
  GI50: 9.5 nM
[5]; NCI-H522, AZI sheet
  GI50: 270 nM
[5]; OVCAR-3, AZI sheet
  GI50: 240 nM
[5]; OVCAR-4, AZI sheet
  GI50: 620 nM
[5]; OVCAR-5, AZI sheet
  GI50: 68 nM
[5]; OVCAR-8, AZI sheet
  GI50: 25 nM
[5]; PC-3, AZI sheet
  GI50: 39.6 nM
[5]; RPMI-8226, AZI sheet
  GI50: 470 nM
[5]; RXF 393, AZI sheet
  GI50: 41 nM
[5]; SF-268, AZI sheet
  GI50: 24 nM
[5]; SF-295, AZI sheet
  GI50: 3 nM
[5]; SF-539, AZI sheet
  GI50: 51 nM
[5]; SK-MEL-2, AZI sheet
  GI50: 49 nM
[5]; SK-MEL-5, AZI sheet
  GI50: 6.3 nM
[5]; SK-MEL-28, AZI sheet
  GI50: 29 nM
[5]; SK-OV-3, AZI sheet
  GI50: 8.7 nM
[5]; SN12C, AZI sheet
  GI50: 65 nM
[5]; SNB-19, AZI sheet
  GI50: 6.6 nM
[5]; SR, AZI sheet
  GI50: 7.4 nM
[5]; SW-620, AZI sheet
  GI50: 46 nM
[5]; T-47D, AZI sheet
  GI50: 290 nM
[5]; TK-10, AZI sheet
  GI50: 970 nM
[5]; U251, AZI sheet
  GI50: 3.6 nM
[5]; UACC-62, AZI sheet
  GI50: 6.2 nM
[5]; UACC-257, AZI sheet
  GI50: 92 nM
[5]; UO-31, AZI sheet
  GI50: 44 nM
[2]
  IC50: 4.1 nM
[4]
  IC50(HeLa)/IC50(A549): 1.7
[4]; [6]
  IC50: 6.9 nM

## COC(=O)Oc1cc2c(c3ccccc13)[C@H](CCl)CN2C(=O)c1cc2cc(OC)c(OC)c(OC)c2[nH]1 [MC-CBI-TMI]
[2]
  IC50: 2.9 nM
[4]
  IC50(HeLa)/IC50(A549): 1.5
[4]; [6]
  IC50: 4.3 nM

## O=C(c1cc2cc(OCCCN3CCC3)ccc2[nH]1)N1CC(CCl)c2c1cc(OC(=O)N1CCCC3COCC31)c1ccccc21 (mixture of isomers) [O56-CBI-AZI]
[1]
  well-tolerated dose: 1 mg/kg
[2]
  IC50: 410 nM
[4]; initial screening, A549 and HeLa cell lines
  IC50: ~300 nM
[4]
  IC50(HeLa)/IC50(A549): 1.1
[4]; [6]
  IC50: 460 nM

## COc1cc2cc(C(=O)N3C[C@@H](CCl)c4c3cc(OC(=O)N(C)CCSSCCN3CCOCC3)c3ccccc43)[nH]c2c(OC)c1OC [SS00M-CBI-TMI]
[5]; 786-0
  GI50: 16 nM
[5]; A498
  GI50: 270 nM
[5]; A549/ATCC
  GI50: 31 nM
[5]; ACHN
  GI50: 19 nM
[5]; BT-549
  GI50: 15 nM
[5]; CAKI-1
  GI50: 41 nM
[5]; CCRF-CEM
  GI50: 100 nM
[5]; COLO 205
  GI50: 450 nM
[5]; EKVX
  GI50: 82 nM
[5]; HCC-2998
  GI50: 78 nM
[5]; HCT-15
  GI50: 190 nM
[5]; HCT-116
  GI50: 610 nM
[5]; HL-60(TB)
  GI50: 78 nM
[5]; HOP-62
  GI50: 11 nM
[5]; HOP-92
  GI50: 750 nM
[5]; HT29
  GI50: 320 nM
[5]; IGROV1
  GI50: 23 nM
[5]; K-562
  GI50: 330 nM
[5]; KM12
  GI50: 150 nM
[5]; LOX IMVI
  GI50: 42 nM
[5]; M14
  GI50: 31 nM
[5]; MALME-3M
  GI50: 110 nM
[5]; MDA-MB-435
  GI50: 51 nM
[5]; MDA-MB-468
  GI50: 12 nM
[5]; MOLT-4
  GI50: 17 nM
[5]; NCI-H23
  GI50: 9.6 nM
[5]; NCI-H226
  GI50: 29 nM
[5]; NCI-H460
  GI50: 9.5 nM
[5]; NCI-H522
  GI50: 400 nM
[5]; OVCAR-3
  GI50: 690 nM
[5]; OVCAR-4
  GI50: 560 nM
[5]; OVCAR-5
  GI50: 82 nM
[5]; OVCAR-8
  GI50: 43 nM
[5]; PC-3
  GI50: 25 nM
[5]; RPMI-8226
  GI50: 850 nM
[5]; RXF 393
  GI50: 6.6 nM
[5]; SF-268
  GI50: 21 nM
[5]; SF-295
  GI50: 7.4 nM
[5]; SF-539
  GI50: 8.3 nM
[5]; SK-MEL-5
  GI50: 35 nM
[5]; SK-MEL-28
  GI50: 41 nM
[5]; SK-OV-3
  GI50: 16 nM
[5]; SN12C
  GI50: 34 nM
[5]; SNB-19
  GI50: 28 nM
[5]; SR
  GI50: 6.9 nM
[5]; SW-620
  GI50: 570 nM
[5]; T-47D
  GI50: 50 nM
[5]; TK-10
  GI50: 820 nM
[5]; U251
  GI50: 18 nM
[5]; UACC-62
  GI50: 52 nM
[5]; UACC-257
  GI50: 500 nM
[2]
  IC50: 35 nM
[4]
  IC50(HeLa)/IC50(A549): 3.6
[4]; [6]
  IC50: 125 nM
